Source: PubChem BioAssay (NCI)
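Grown in 96-well plates, cells were treated for 48 hours with each compound at five concentrations. Insufficient inhibition: endpoint recorded as highest concentration tested. Here, GI50 denotes the concentration required for 50% inhibition of growth. TGI: total growth inhibition.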

Legend:
Experiment in all cases: DTP human tumour cell line panel, 48 h
[1] = system: EKVX NSCLC
[2] = system: SK-MEL-28 melanoma
[3] = system: HOP-92 NSCLC
[4] = system: COLO 205 colon
[5] = system: CAKI-1 renal
[6] = system: CCRF-CEM leukemia
[7] = system: SF-268 CNS
[8] = system: SK-MEL-5 melanoma
[9] = system: MDA-MB-231 breast
[10] = system: SNB-75 CNS
[11] = system: NCI/ADR-RES ovarian
[12] = system: HCC-2998 colon
[13] = system: HT29 colon
[14] = system: OVCAR-5 ovarian
[15] = system: MALME-3M melanoma
[16] = system: KM12 colon
[17] = system: HCT-116 colon
[18] = system: HCT-15 colon
[19] = system: SR leukemia
[20] = system: PC-3 prostate
[21] = system: SW-620 colon
[22] = system: SK-MEL-2 melanoma
[23] = system: RPMI-8226 leukemia
[24] = system: OVCAR-3 ovarian
[25] = system: MCF7 breast
[26] = system: UACC-257 melanoma
[27] = system: SNB-19 CNS
[28] = system: K-562 leukemia
[29] = system: UACC-62 melanoma

In the case of `C[C@@H](c1ccc2nccn2c1)n1nnc2ncc(-c3cnn(C)c3)nc21`, the TGI [1] is reported as > 100 µM, the GI50 [2] is reported as > 100 µM and the TGI [2] is reported as > 100 µM. For the same compound, the GI50 [3] was 58 µM, the TGI [3] was > 100 µM and the GI50 [4] was > 100 µM. For the same compound, the TGI [4] was > 100 µM, the GI50 [5] was > 100 µM and the TGI [5] was > 100 µM. The GI50 [6] was > 100 µM, the TGI [6] was > 100 µM and the GI50 [7] was > 100 µM. The TGI [7] was > 100 µM, the GI50 [8] was > 100 µM and the TGI [8] was > 100 µM. The GI50 [9] was > 100 µM, the TGI [9] was > 100 µM and the GI50 [10] was > 100 µM. For the same compound, the TGI [10] was > 100 µM, the GI50 [11] was > 100 µM and the TGI [11] was > 100 µM. For the same compound, the GI50 [12] was > 100 µM, the TGI [12] was > 100 µM and the GI50 [13] was > 100 µM. The TGI [13] was > 100 µM, the GI50 [14] was > 100 µM and the TGI [14] was > 100 µM. For the same compound, the GI50 [15] was > 100 µM, the TGI [15] was > 100 µM and the GI50 [16] was 43.3 µM. For the same compound, the TGI [16] was > 100 µM, the GI50 [17] was > 100 µM and the TGI [17] was > 100 µM. The GI50 [18] was > 100 µM, the TGI [18] was > 100 µM and the GI50 [19] was 49.9 µM. The TGI [19] was > 100 µM, the GI50 [20] was > 100 µM and the TGI [20] was > 100 µM. The GI50 [21] was > 100 µM, the TGI [21] was > 100 µM and the GI50 [22] was > 100 µM. For the same compound, the TGI [22] was > 100 µM, the GI50 [23] was 47.6 µM and the TGI [23] was > 100 µM. For the same compound, the GI50 [24] was > 100 µM, the TGI [24] was > 100 µM and the GI50 [25] was > 100 µM. The TGI [25] was > 100 µM, the GI50 [26] was > 100 µM and the TGI [26] was > 100 µM. The GI50 [27] was > 100 µM, the TGI [27] was > 100 µM and the GI50 [28] was > 100 µM. The TGI [28] was > 100 µM, the GI50 [29] was > 100 µM and the TGI [29] was > 100 µM.
